This is an account of results in patent US9376418B2, “Substituted pyridine spleen tyrosine kinase (SYK) inhibitors” (Merck Sharp & Dohme Corp., priority 2012, dated 2016).

The target in the first test is T1, recombinant human GST-SYK (Homo sapiens, UniProt P43405).
T1 construct: purchased Carna Biosciences 08-176
In words: Homogeneous Time-Resolved Fluorescence (HTRF) assay for the recombinant human Syk enzyme. It is filed as biochemical. To be noted: HTRF assay, recombinant human GST-SYK; IC50 given as class symbols; read-out: rhSYK Activity. Put shortly:
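Enzyme […], pH 7.5 Tris/tween/DTT buffer; 10 min preincubation with compound, RT. Start: 250 nM biotin-peptide, 25 μM ATP, 5 mM Mg; 45′ RT. Stop/detect: 40 mM EDTA, Eu-anti-pTyr, SA-APC; read 30 min later.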
(In TR-FRET formats the signal depends on donor and acceptor labels being close together.)
In the case of `COc1cccc(-c2cccc(Nc3nccc(C(F)(F)F)n3)c2)n1` [Example 2.3, N-[3-(6-methoxypyridin-2-yl)phenyl]-4-(trifluoromethyl)pyrimidin-2-amine], the IC50 lay in the range of 1 to 10 µM. Still for that read-out and setting: in the case of `Cc1cc(Nc2nccc(C(F)(F)F)n2)cc(-c2ccc([C@]3(O)CC[C@@H](C(=O)O)CC3)nc2)c1` [Example 9.34, cis-4-hydroxy-4-[5-(3-methyl-5-{[4-(trifluoromethyl)pyrimidin-2-yl]amino}phenyl)pyridin-2-yl]cyclohexanecarboxylic acid] it was less than 0.1 µM. Take `Cc1cc(Nc2nccc(C(F)(F)F)n2)cc(-c2ccc(NS(=O)(=O)N3CCCCC3)nc2)c1` [Example 2.62, N-[5-(3-methyl-5-{[4-(trifluoromethyl)pyrimidin-2-yl]amino}phenyl)pyridin-2-yl]piperidine-1-sulfonamide]: the IC50 is 0.1 to 1 µM. Still for that read-out and setting: then `CSCC[C@H](Nc1ccc(-c2cc(C)cc(Nc3nccc(C(F)(F)F)n3)c2)cn1)C(=O)O` [Example 7.95, N-[5-(3-methyl-5-{[4-(trifluoromethyl)pyrimidin-2-yl]amino}phenyl)pyridin-2-yl]-L-methionine], with less than 0.1 µM; and `Cc1cc(Nc2nccc(C(F)(F)F)n2)cc(-c2ccnc(NC[C@@H](C)O)c2)c1` [Example 15.52, (2R)-1-{[4-(3-methyl-5-{[4-(trifluoromethyl)pyrimidin-2-yl]amino}phenyl)pyridin-2-yl]amino}propan-2-ol], with less than 0.1 µM; and `Cc1cc(Nc2nccc(C(F)(F)F)n2)cc(-c2ccc(NCc3cn(C)cn3)nc2)c1` [Example 7.25, N-[3-methyl-5-(6-{[(1-methyl-1H-imidazol-4-yl)methyl]amino}pyridin-3-yl)phenyl]-4-(trifluoromethyl)pyrimidin-2-amine], with less than 0.1 µM. Consider `CCOC(=O)C1CCC(O)(c2ccc(-c3cc(C)cc(Nc4nccc(C(F)(F)F)n4)c3)cn2)C1(C)C` (stereo not shown) [Example 9.47, ethyl 3-hydroxy-2,2-dimethyl-3-[5-(3-methyl-5-{[4-(trifluoromethyl)pyrimidin-2-yl]amino}phenyl)pyridin-2-yl]cyclopentanecarboxylate], for which the IC50 lay in the range of 1 to 10 µM. On to `CCOC(=O)CCc1cccc(-c2cccc(Nc3nccc(C(F)(F)F)n3)c2)n1` [Example 2.14, ethyl 3-[6-(3-{[4-(trifluoromethyl)pyrimidin-2-yl]amino}phenyl)pyridin-2-yl]propanoate], for which the IC50 is 1 to 10 µM.

For the compound `CC(=O)Nc1cc(Nc2nccc(C(F)(F)F)n2)cc(-c2ccncc2)c1` [Example 6.5, N-(3-pyridin-4-yl-5-{[4-(trifluoromethyl)pyrimidin-2-yl]amino}phenyl)acetamide], the IC50 is less than 0.1 µM. On to `Cc1cc(Nc2nccc(C(F)(F)F)n2)cc(-c2cncc(C(F)(F)F)c2)c1` [Example 2.54, N-{3-methyl-5-[5-(trifluoromethyl)pyridin-3-yl]phenyl}-4-(trifluoromethyl)pyrimidin-2-amine], for which the IC50 was 0.1 to 1 µM. `CCN(C)C(=O)c1ccc(-c2cc(C)cc(Nc3nccc(C(F)(F)F)n3)c2)cn1` [Example 16.59, N-ethyl-N-methyl-5-(3-methyl-5-{[4-(trifluoromethyl)pyrimidin-2-yl]amino}phenyl)pyridine-2-carboxamide]: the IC50 was less than 0.1 µM.

As to `Cc1cc(Nc2nccc(C(F)(F)F)n2)cc(-c2ccc(N(C)CC(N)=O)nc2)c1` [Example 7.153, N~2~-methyl-N~2~-[5-(3-methyl-5-{[4-(trifluoromethyl)pyrimidin-2-yl]amino}phenyl)pyridin-2-yl]glycinamide], the IC50 is less than 0.1 µM.

Regarding `Cc1cc(Nc2nccc(C(F)(F)F)n2)cc(-c2ccnc(C3(O)CCC3)c2)c1` [Example 9.60, 1-[4-(3-methyl-5-{[4-(trifluoromethyl)pyrimidin-2-yl]amino}phenyl)pyridin-2-yl]cyclobutanol], the IC50 is less than 0.1 µM.

Take `Cc1cc(Nc2nccc(C(F)(F)F)n2)cc(-c2ccc(NC3CNC(=O)C3)nc2)c1` (stereo not shown) [Example 7.128, 4-{[5-(3-methyl-5-{[4-(trifluoromethyl)pyrimidin-2-yl]amino}phenyl)pyridin-2-yl]amino}pyrrolidin-2-one]: the IC50 was less than 0.1 µM.

As for `OC1(c2cccc(-c3cc(Nc4nccc(C(F)(F)F)n4)cc(N4CCOCC4)c3)n2)CCC1` [Example 1.1, 1-{6-[3-(Morpholin-4-yl)-5-{[4-(trifluoromethyl)pyrimidin-2-yl]amino}phenyl]pyridin-2-yl}cyclobutanol], the IC50 lay in the range of 0.1 to 1 µM. On to `Cc1cc(Nc2nccc(C(F)(F)F)n2)cc(-c2cncc(F)c2)c1` [Example 4.3, N-[3-(5-fluoropyridin-3-yl)-5-methylphenyl]-4-(trifluoromethyl)pyrimidin-2-amine], for which the IC50 is less than 0.1 µM. For `Cc1cc(Nc2nccc(C(F)(F)F)n2)cc(-c2ccc(N3C[C@H](O)C[C@H]3C(=O)O)nc2)c1` [Example 7.105, (4R)-4-hydroxy-1-[5-(3-methyl-5-{[4-(trifluoromethyl)pyrimidin-2-yl]amino}phenyl)pyridin-2-yl]-L-proline], the IC50 is less than 0.1 µM. As to `CCOC(=O)CCc1cncc(-c2cc(C)cc(Nc3nccc(C4CC4)n3)c2)c1` [Example 2.100], the IC50 was less than 0.1 µM. The same measure, in the same setting: in the case of `Cc1cc(Nc2nccc(C(F)(F)F)n2)cc(-c2ccc(C(=O)N3C[C@H](O)C[C@H]3C)nc2)c1` [Example 16.41, (3R,5R)-5-methyl-1-{[5-(3-methyl-5-{[4-(trifluoromethyl)pyrimidin-2-yl]amino}phenyl)pyridin-2-yl]carbonyl}pyrrolidin-3-ol] it was less than 0.1 µM. Same read-out and setting: then `Cc1cc(Nc2nccc(C(F)(F)F)n2)cc(-c2ccc(N[C@H](C(=O)O)C(C)C)nc2)c1` [Example 7.91, N-[5-(3-methyl-5-{[4-(trifluoromethyl)pyrimidin-2-yl]amino}phenyl)pyridin-2-yl]-L-valine], with less than 0.1 µM. Turning to `Cc1cc(Nc2nccc(C(F)(F)F)n2)cc(-c2ccc(C(=O)N3CC[C@H](CO)C3)nc2)c1` [Example 16.43, [(3S)-1-{[5-(3-methyl-5-{[4-(trifluoromethyl)pyrimidin-2-yl]amino}phenyl)pyridin-2-yl]carbonyl}pyrrolidin-3-yl]methanol], the IC50 is less than 0.1 µM. Turning to `COc1nc(Nc2cc(C)cc(-c3ccc(N[C@H]4CC[C@H](C(=O)O)CC4)nc3)c2)ncc1F` [Example 2.121, trans-4-[(5-{3-[(5-fluoro-4-methoxypyrimidin-2-yl)amino]-5-methylphenyl}pyridin-2-yl)amino]cyclohexanecarboxylic acid], the IC50 was less than 0.1 µM.

Take `COC(=O)c1ccc(-c2cc(C)cc(Nc3nccc(C(F)(F)F)n3)c2)cn1` [Example 2.65, methyl 5-(3-methyl-5-{[4-(trifluoromethyl)pyrimidin-2-yl]amino}phenyl)pyridine-2-carboxylate]: the IC50 lay in the range of 0.1 to 1 µM. On to `Cc1cc(Nc2nccc(C(F)(F)F)n2)cc(-c2ccnc(N3CCNCC3)c2)c1` [Example 2.126, N-[3-methyl-5-(2-piperazin-1-ylpyridin-4-yl)phenyl]-4-(trifluoromethyl)pyrimidin-2-amine], for which the IC50 is less than 0.1 µM. As for `Cc1cc(Nc2nccc(C(F)(F)F)n2)cc(-c2ccc(N[C@@H](C(=O)O)C(C)C)nc2)c1` [Example 7.90, N-[5-(3-methyl-5-{[4-(trifluoromethyl)pyrimidin-2-yl]amino}phenyl)pyridin-2-yl]-D-valine], the IC50 was less than 0.1 µM.

`Cc1cc(Nc2nccc(C(F)(F)F)n2)cc(-c2ccc(C3(O)COC3)nc2)c1` [Example 9.55, 3-[5-(3-methyl-5-{[4-(trifluoromethyl)pyrimidin-2-yl]amino}phenyl)pyridin-2-yl]oxetan-3-ol]: the IC50 is less than 0.1 µM. Still for that read-out and setting: in the case of `Cc1cc(Nc2nccc(C(F)(F)F)n2)cc(-c2ccnc(N3CCN(C)CC3)c2)c1` [Example 15.61, N-{3-methyl-5-[2-(4-methylpiperazin-1-yl)pyridin-4-yl]phenyl}-4-(trifluoromethyl)pyrimidin-2-amine] it was 0.1 to 1 µM. For the compound `Cc1cc(Nc2nccc(C(F)(F)F)n2)cc(-c2ccc(N[C@H](Cc3c[nH]c4ccccc34)C(=O)O)nc2)c1` [Example 7.99, N-[5-(3-methyl-5-{[4-(trifluoromethyl)pyrimidin-2-yl]amino}phenyl)pyridin-2-yl]-D-tryptophan], the IC50 was less than 0.1 µM. For `Cc1cc(Nc2nccc(C(F)(F)F)n2)cc(-c2ccc(NCCCN)nc2)c1` [Example 7.26, N-[5-(3-methyl-5-{[4-(trifluoromethyl)pyrimidin-2-yl]amino}phenyl)pyridin-2-yl]propane-1,3-diamine], the IC50 is less than 0.1 µM. For the compound `Cc1cc(Nc2nccc(C(F)(F)F)n2)cc(-c2ccc(N3CCN(C)C(=O)C3C)nc2)c1` (stereo not shown) [Example 7.55, 1,3-dimethyl-4-[5-(3-methyl-5-{[4-(trifluoromethyl)pyrimidin-2-yl]amino}phenyl)pyridin-2-yl]piperazin-2-one], the IC50 is less than 0.1 µM. `Cc1cc(Nc2nccc(C(F)(F)F)n2)cc(-c2ccc(OC3CCOCC3)nc2)c1` [Example 2.61, N-{3-methyl-5-[6-(tetrahydro-2H-pyran-4-yloxy)pyridin-3-yl]phenyl}-4-(trifluoromethyl)pyrimidin-2-amine]: the IC50 is 0.1 to 1 µM. In the case of `CC(=O)Nc1cc(Nc2nccc(C(F)(F)F)n2)cc(-c2ccc(N3CC[C@H]3C(=O)O)nc2)c1` [Example 7.2, (2S)-1-{5-[3-(acetylamino)-5-{[4-(trifluoromethyl)pyrimidin-2-yl]amino}phenyl]pyridin-2-yl}azetidine-2-carboxylic acid], the IC50 is less than 0.1 µM. As to `Cc1cc(Nc2nccc(C(F)(F)F)n2)cc(-c2ccnc(C3(O)CCC4(CC3)OCCO4)c2)c1` [Example 9.63, 8-[4-(3-methyl-5-{[4-(trifluoromethyl)pyrimidin-2-yl]amino}phenyl)pyridin-2-yl]-1,4-dioxaspiro[4.5]decan-8-ol], the IC50 is less than 0.1 µM.

Still in this test, the particulars now being: recombinant GST-hSYK, 25 μM ATP, HTRF; read-out: IC50 (inhibition of human Syk activity).
Consider `OC1(c2cccc(-c3cc(Nc4nccc(C(F)(F)F)n4)cc(N4CCOCC4)c3)n2)CCC1` [Example 1.1, 1-{6-[3-(Morpholin-4-yl)-5-{[4-(trifluoromethyl)pyrimidin-2-yl]amino}phenyl]pyridin-2-yl}cyclobutanol], for which the IC50 turned out to be 0.144 µM.
